These results are taken from ChEMBL document CHEMBL1765060, “Synthesis, characterization, and biological evaluation of novel diclofenac prodrugs” (J Med Chem, 2011).

Series [1] in a line: Aqueous solubility of the compound in acetate buffer at pH 5.5 by HPLC analysis.
For series [2] the following is noted: buffer, pH 9.
The nature of series [3]: physchem. Conditions: octanol/0.2 M phosphate buffer, pH 7.4.
For series [4] the following is noted: buffer, pH 1.
Series [5] concerns Rattus norvegicus. In words: Gastrointestinal toxicity in Wistar rat assessed as ulcer area of <1 mm diameter at 100 mg/kg, po. Format: organism-based. The arrangement: dose 100 mg/kg, route oral. The following applies: in vivo.
The subject of series [6] is Rattus norvegicus. In words: Antiinflammatory activity in Wistar rat assessed as inhibition of carrageenan-induced paw edema at 100 mg/kg, po administered 1 hr before carrageenan challenge measured after 180 mins. It is filed as functional. The arrangement: scale not given: the % may be the effect or the level left.
The conditions of series [7]: buffer, pH 3.
Series [8] deals with Rattus norvegicus. In words: Gastrointestinal toxicity in Wistar rat assessed as ulcer index at 100 mg/kg, po. It is filed as organism-based. The arrangement: dose 100 mg/kg, route oral. The following applies: in vivo.
Series [9] can be described thus: Metabolic stability in rat plasma assessed as compound remaining after 60 mins by HPLC analysis. It is filed as ADME, cell-free. Conditions: read-out: Stability.
Series [10] in a line: Metabolic stability in rat liver microsomes assessed as compound remaining after 60 mins by HPLC analysis. Format: ADME, Microsome. The following applies: read-out: Stability.
The nature of series [11]: Metabolic stability in rat plasma assessed as compound remaining after 120 mins by HPLC analysis. Format: ADME, cell-free. The following applies: read-out: Stability.
A short description of series [12]: physchem. Conditions: octanol/0.1 M citric acid buffer, pH 3.
For series [13] the following is noted: buffer, pH 7.4.
Series [14] is described as follows: Metabolic stability in rat liver microsomes assessed as compound remaining after 30 mins by HPLC analysis. It is filed as ADME, Microsome. The following applies: read-out: Stability.
Series [15] has as its system Rattus norvegicus. In words: Gastrointestinal toxicity in Wistar rat assessed as ulcer area of 1-3 mm diameter at 100 mg/kg, po. Format: organism-based. The arrangement: dose 100 mg/kg, route oral. The following applies: in vivo.
The subject of series [16] is Rattus norvegicus. The experiment in a line: Gastrointestinal toxicity in Wistar rat assessed as ulcer area of >3 mm diameter at 100 mg/kg, po. Format: organism-based. The arrangement: dose 100 mg/kg, route oral. The following applies: in vivo.
Series [17] deals with Rattus norvegicus. The experiment in a line: Gastrointestinal toxicity in Wistar rat assessed as ulcer index at 50 mg/kg, po. It is filed as organism-based. The arrangement: dose 50 mg/kg, route oral. The following applies: in vivo.
Series [18] concerns Rattus norvegicus. The experiment in a line: Antiinflammatory activity in Wistar rat assessed as inhibition of carrageenan-induced paw edema at 50 mg/kg, po administered 1 hr before carrageenan challenge measured after 180 mins. Format: functional. The arrangement: scale not given: the % may be the effect or the level left.
For series [19], the system named is Rattus norvegicus. In words: Gastrointestinal toxicity in Wistar rat assessed as ulcer area of <1 mm diameter at 50 mg/kg, po. Format: organism-based. The arrangement: dose 50 mg/kg, route oral. The following applies: in vivo.
The subject of series [20] is Rattus norvegicus. The experiment in a line: Gastrointestinal toxicity in Wistar rat assessed as ulcer area of 1-3 mm diameter at 50 mg/kg, po. The arrangement: dose 50 mg/kg, route oral. Format: organism-based. The following applies: in vivo.
Series [21] relates to Rattus norvegicus. In words: Gastrointestinal toxicity in Wistar rat assessed as ulcer area of >3 mm diameter at 50 mg/kg, po. The arrangement: dose 50 mg/kg, route oral. Conditions: in vivo. It is filed as organism-based.

For `CC(C)(C)C(=O)OCOC(=O)Cc1ccccc1Nc1c(Cl)cccc1Cl`, the solubility entry in series [1], in [2], in series [4], in [7] and in [13] was “BLD” in each case. For the same compound, the logD is 3.72 in series [3] and 4.08 in series [12]. The Activity is 100% in series [5] and 56.33% in series [6]. Besides, in [8], the UI was found to be 6. Besides, the remaining at 1 h in series [9] and in series [10] was 0% in each case. In addition, the remaining at 2 h in series [11] turned out to be 0%. For the same compound, the remaining at 0.5 h in series [14] was 2.5%.
Take `CC(C)OC(=O)OCOC(=O)Cc1ccccc1Nc1c(Cl)cccc1Cl`: the Activity came to 2.86% in series [15], 91.4% in series [5], 40.88% in [6] and 5.71% in series [16]. The solubility result in series [1], in series [2], in series [4], in series [7] and in series [13] was “BLD” each time. The values for the logD in series [3] and in [12] were 2.46 and 3.9, respectively. For the same compound, in [8], the UI came to 40. Besides, the remaining at 1 h in series [9] was 0%; in series [10], 1.2%. The remaining at 2 h in [11] is 0%. In series [14], the remaining at 0.5 h stood at 2.2%.
As for `CC(=O)OCCOC(=O)Cc1ccccc1Nc1c(Cl)cccc1Cl`, the solubility result in series [1], in series [2], in [4], in series [7] and in series [13] was “BLD” throughout. The logD in series [3] worked out at 4.57; in series [12], 4.33. Moreover, the Activity came to 100% in series [5] and 47.51% in series [6]. In addition, the UI in series [8] came to 8. In addition, the remaining at 1 h in [9] and in [10] was 0% throughout. Further, the remaining at 2 h in [11] amounted to 0%. In series [14], the remaining at 0.5 h amounted to 0%.
On to `O=C([O-])Cc1ccccc1Nc1c(Cl)cccc1Cl.[Na+]` [DICLOFENAC SODIUM], for which the UI in [17] is recorded as 63. Moreover, the remaining at 1 h in series [9] is 86.2%; in series [10], 88.8%. Moreover, the Activity in series [18] was found to be 49.17%; in series [19], 80%; in series [20] it was 14%; in series [21], 6%. The remaining at 2 h in [11] was found to be 69.4%. Moreover, the remaining at 0.5 h in series [14] was 84.4%.
